Assay results from US5633219A, “5H-pyrrolo(3',4':5,6)(1,4)dithiin o(2,3-C)(1,2,5)thiadiazole-5,7(6H)-dione, compositions containing them and their use as antimicrobial and marine antifouling agents” (The Dow Chemical Company, priority 1996, dated 1997).
Converted amounts (≈) assume the structure as drawn. Read-outs that look alike come from different tables or passages of the source.

Columns and labels:
[1] = tested on: Pseudomonas aeruginosa (Pa); assay: Minimum inhibitory concentration, nutrient agar, Pseudomonas aeruginosa; format: cell-based, Pseudomonas aeruginosa ATCC 10145; conditions: pH 8.2, nutrient agar, 30° C, 48 hours
[2] = tested on: Staphylococcus aureus (Sa); assay: Minimum inhibitory concentration, nutrient agar, Staphylococcus aureus; conditions: 48 h
[3] = tested on: Saccharomyces cerevisiae (Sc); assay: Minimum inhibitory concentration, malt yeast agar, Saccharomyces cerevisiae; format: cell-based, Saccharomyces cerevisiae ATCC 4105; conditions: malt yeast agar, 30° C, 48 hours (yeast), read-out: Minimum Inhibitory Concentration, Sc
Protocol: (§1) Malt yeast agar is prepared by adding 3 g yeast extract and 45 g malt agar per liter of deionized water. The specific agar is dispensed in 30 mL aliquots into 25×200 mm test tubes, capped and autoclaved for 15 minutes at 115° C.
(§2) The inoculation with the yeast and fungi is accomplished as follows. Cultures of yeast and fungi are incubated for seven days on malt yeast agar at 30° C. These cultures are used to prepare suspensions by the following procedure. A suspension of each organism is prepared by adding 10 mL of sterile saline and 10 microliters of octylphenoxy polyethoxy ethanol to the agar slant of yeast or fungi. The sterile saline/octylphenoxy polyethoxy ethanol solution is then agitated with a sterile swab to suspend the microorganism grown on the slant. Each resulting suspension is diluted into sterile saline (1 part suspension to 9 parts sterile saline). Aliquots of these dilutions are placed in individual wells of Steer's Replicator and petri plates inoculated as previously described. The petri plates are incubated at 30° C. and read after 48 hours for yeast and 72 hours for fungi.

[4] = tested on: Salmonella choleraesuis (Sc); assay: Minimum inhibitory concentration, nutrient agar, Salmonella choleraesuis; format: cell-based, Salmonella choleraesuis ATCC 10708; conditions: Salmonella enterica, 30° C, 48 hours
[5] = tested on: Escherichia coli (Ec); assay: Minimum inhibitory concentration, nutrient agar, Escherichia coli; conditions: 48 h
[6] = tested on: Penicillium chrysogenum (PC); assay: Minimum inhibitory concentration, malt yeast agar, Penicillium chrysogenum; format: cell-based, Penicillium chrysogenum ATCC 9480; conditions: malt yeast agar, 30° C, 72 hours (fungi); read-out: Minimum Inhibitory Concentration, Pc
Protocol: as §1, §2

[7] = tested on: Proteus vulgaris (Pv); assay: Minimum inhibitory concentration, nutrient agar, Proteus vulgaris; conditions: 48 h
[8] = tested on: Pseudomonas aeruginosa (PRD-10); assay: Minimum inhibitory concentration, nutrient agar, Pseudomonas aeruginosa PRD-10; conditions: 48 h
[9] = tested on: Aureobasidium pullulan (Ap); assay: Minimum inhibitory concentration, malt yeast agar, Aureobasidium pullulan; format: cell-based, Aureobasidium pullulan ATCC 16622; conditions: 30° C, 48 hours for yeast and 72 hours for fungi
Protocol: as §1, §2

[10] = tested on: Trichoderma viride (Tv); assay: Minimum inhibitory concentration, malt yeast agar, Trichoderma viride; format: cell-based, Trichoderma viride ATCC 8678; conditions: malt yeast agar, 30° C, 72 hours (fungi); read-out: Minimum Inhibitory Concentration, Tv
Protocol: as §1, §2

[11] = tested on: Enterobacter aerogenes (Ea); assay: Minimum inhibitory concentration, nutrient agar, Enterobacter aerogenes; conditions: Klebsiella aerogenes, 48 h
[12] = tested on: marine organisms; assay: Marine antifouling rating of coated test panels exposed under a marine surface; conditions: scale 10 (completely free of growth) to 0 (completely covered), 1.0 g compound in 9.0 g latex binder
Protocol: Test panels are prepared from clear, rigid polyvinyl chloride film that is 0.381×10^-3 m thick and has one textured surface. The test panels are 0.1524 m by 0.1524 m squares that have 0.00635 m holes punched at corners on 0.127 m centers. A 0.102 square template, with a 0.067 m diameter hole at the center, is attached to the center of the textured surface of the test panels.
A candidate marine antifoulant compound (1.0 g) is stirred into a resinous latex binder (9.0 g). A portion of the compound/binder mixture (1.5 g) is added to the center of the test panel and uniformly spread over the circular area inside the template.
Water is added dropwise as needed to properly spread the compound/binder mixture. The template prevents the compound/binder mixture from spreading beyond the uncovered area. The test panel is allowed to sit for between 10 to 30 minutes until the edge of the spread compound/binder mixture has dried. The template is then removed. The test panel is then allowed to dry for 8 to 12 hours at room temperature.
Two test panels are prepared for each candidate marine antifoulant compound. Two control test panels are also prepared by only treating with the resinous latex binder. One test panel of each candidate marine […] compound is attached over a white background to the topside of an exposure support apparatus. The second test panel is attached over a black background to the underside of the exposure support apparatus. The exposure support apparatus is placed horizontally 0.0254 m under a marine surface with the white background topside facing up. […]
After being removed from the exposure support apparatus, each test panel is inspected and rated for marine organism growth on both the treated and untreated areas of the test panel. The marine organisms present on the treated and untreated areas are noted. The presence of algae spores and bacterial slime are noted but not included in rating each test panel. The test panels are rated on a scale from 10 (representing completely free of marine organism growth) to 0 (representing completely covered with marine organism growth).

[13] = tested on: Bacillus subtilis (Bs); assay: Minimum inhibitory concentration, nutrient agar, Bacillus subtilis; conditions: 48 h
[14] = tested on: Klebsiella pneumoniae (Kp); assay: Minimum inhibitory concentration, nutrient agar, Klebsiella pneumoniae; conditions: 48 h
[15] = tested on: Aspergillus niger (An); assay: Minimum inhibitory concentration, malt yeast agar, Aspergillus niger; format: cell-based, Aspergillus niger ATCC 16404; conditions: 30° C, 72 hours (fungi)
Protocol: as §1, §2

[16] = tested on: Candida albicans (Ca); assay: Minimum inhibitory concentration, malt yeast agar, Candida albicans; format: cell-based, Candida albicans ATCC 10231; conditions: malt yeast agar, 30° C, 48 hours (yeast); read-out: Minimum Inhibitory Concentration, Ca
Protocol: as §1, §2

[17] = tested on: Fusarium oxysporum (Of); assay: Minimum inhibitory concentration, malt yeast agar, Fusarium oxysporum; format: cell-based, Fusarium oxysporum ATCC 48112; conditions: 30° C, 72 hours (fungi), read-out: Minimum Inhibitory Concentration, Fo
Protocol: as §1, §2

## O=c1[nH]c(=O)c2sc3nsnc3sc1=2 [Example I, 5H-Pyrrolo(3',4':5,6)(1,4)dithiino-(2,3-C) (1,2,5)thiadiazole-5,7 (6H) -dione]
[1]
  MIC: > 500 µg/mL
[2]; pH 6.8, read-out: Minimum inhibitory Concentration, Sa
  MIC: 100 µg/mL (≈ 411 µM)
[2]; pH 8.2, read-out: Minimum inhibitory Concentration, Sa
  MIC: > 500 µg/mL
[3]
  MIC: < 1 µg/mL
[4]; pH 6.8, nutrient agar
  MIC: 100 µg/mL (≈ 411 µM)
[4]; pH 8.2, nutrient agar
  MIC: > 500 µg/mL
[5]; pH 6.8, read-out: Minimum inhibitory Concentration, Ec
  MIC: 100 µg/mL (≈ 411 µM)
[5]; pH 8.2, read-out: Minimum inhibitory Concentration, Ec
  MIC: > 500 µg/mL
[6]
  MIC: < 1 µg/mL
[7]; pH 6.8, read-out: Minimum inhibitory Concentration, Pv
  MIC: 50 µg/mL (≈ 206 µM)
[7]; pH 8.2, read-out: Minimum inhibitory Concentration, Pv
  MIC: > 500 µg/mL
[8]; pH 6.8, read-out: Minimum inhibitory Concentration, PRD
  MIC: 500 µg/mL (≈ 2060 µM)
[8]; pH 8.2, read-out: Minimum inhibitory Concentration, PRD
  MIC: > 500 µg/mL
[9]
  MIC: < 1 µg/mL
[10]
  MIC: 5 µg/mL (≈ 20.6 µM)
[11]; pH 6.8, read-out: Minimum inhibitory Concentration, Ea
  MIC: 250 µg/mL (≈ 1030 µM)
[11]; pH 8.2, read-out: Minimum inhibitory Concentration, Ea
  MIC: > 500 µg/mL
[12]; 6 weeks
  Marine Antifouling Rating, Bottom Panel: 10
  Marine Antifouling Rating, Top Panel: 10
[12]; 10 weeks
  Marine Antifouling Rating, Bottom Panel: 9
  Marine Antifouling Rating, Top Panel: 7
[12]; 16 weeks
  Marine Antifouling Rating, Bottom Panel: 9
  Marine Antifouling Rating, Top Panel: 8
[13]; pH 6.8, read-out: Minimum inhibitory Concentration, Bs
  MIC: < 10 µg/mL
[13]; pH 8.2, read-out: Minimum inhibitory Concentration, Bs
  MIC: > 500 µg/mL
[14]; pH 6.8, read-out: Minimum inhibitory Concentration, Kp
  MIC: 100 µg/mL (≈ 411 µM)
[14]; pH 8.2, read-out: Minimum inhibitory Concentration, Kp
  MIC: > 500 µg/mL
[15]
  MIC: < 1 µg/mL
[16]
  MIC: 5 µg/mL (≈ 20.6 µM)
[17]
  MIC: < 1 µg/mL
